Experiment [1] has as its target Melatonin receptor type 1A (Homo sapiens, UniProt P48039). In words: Displacement of 2[125I]iodomelatonin from human recombinant MT1 receptor expressed in NIH3T3 cells. The format is cell-based.
Experiment [2] addresses T1, Melatonin receptor type 1B (Homo sapiens, UniProt P49286).
T1 sequence (P49286 whole entry): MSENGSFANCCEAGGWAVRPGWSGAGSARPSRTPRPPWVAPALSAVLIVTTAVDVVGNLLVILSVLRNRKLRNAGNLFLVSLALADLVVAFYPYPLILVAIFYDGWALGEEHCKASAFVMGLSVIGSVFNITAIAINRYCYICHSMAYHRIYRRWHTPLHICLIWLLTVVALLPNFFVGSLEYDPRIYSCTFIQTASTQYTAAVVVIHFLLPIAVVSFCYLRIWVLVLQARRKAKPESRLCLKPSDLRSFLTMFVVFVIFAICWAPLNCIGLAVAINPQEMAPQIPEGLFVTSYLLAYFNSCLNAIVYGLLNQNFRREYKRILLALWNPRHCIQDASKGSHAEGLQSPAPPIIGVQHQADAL
Nature of the experiment: Displacement of 2[125I]iodomelatonin from human recombinant MT2 receptor expressed in NIH3T3 cells. The format is cell-based.

The target in experiment [3] is T2, Melatonin receptor type 1C (Xenopus laevis, UniProt P49219).
T2 sequence (P49219 whole entry): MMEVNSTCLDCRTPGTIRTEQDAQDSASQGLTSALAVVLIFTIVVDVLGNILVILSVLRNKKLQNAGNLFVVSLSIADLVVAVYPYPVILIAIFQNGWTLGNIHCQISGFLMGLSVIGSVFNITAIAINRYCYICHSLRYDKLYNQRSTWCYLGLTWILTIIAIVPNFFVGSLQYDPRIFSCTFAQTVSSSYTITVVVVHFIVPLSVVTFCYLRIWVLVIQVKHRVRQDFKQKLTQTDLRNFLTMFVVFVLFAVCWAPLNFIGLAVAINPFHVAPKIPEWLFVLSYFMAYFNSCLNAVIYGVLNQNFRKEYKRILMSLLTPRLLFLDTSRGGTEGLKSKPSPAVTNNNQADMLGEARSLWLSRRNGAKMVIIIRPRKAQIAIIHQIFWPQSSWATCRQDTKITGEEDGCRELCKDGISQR
In words: Effect on pigment aggregation in Xenopus laevis melanophores. The experiment is classed as functional.

For experiment [4], the target named is T3, Melatonin receptor type 1C (Xenopus laevis) (UniProt P49219).
T3 sequence (whole entry): T2 sequence (P49219 whole entry)
Nature of the experiment: Effect on pigment aggregation in Xenopus laevis melanophores at 10 uM. The format is functional.

Consider 19 molecules from ChEMBL document CHEMBL1148025, “7-Substituted-melatonin and 7-substituted-1-methylmelatonin analogues: effect of substituents on potency and binding affinity” (Bioorg Med Chem, 2007).

Calls of active or inactive are those of the source. No cut-off for these calls is given here.

Melatonin receptor type 1A, sequence (P48039 whole entry): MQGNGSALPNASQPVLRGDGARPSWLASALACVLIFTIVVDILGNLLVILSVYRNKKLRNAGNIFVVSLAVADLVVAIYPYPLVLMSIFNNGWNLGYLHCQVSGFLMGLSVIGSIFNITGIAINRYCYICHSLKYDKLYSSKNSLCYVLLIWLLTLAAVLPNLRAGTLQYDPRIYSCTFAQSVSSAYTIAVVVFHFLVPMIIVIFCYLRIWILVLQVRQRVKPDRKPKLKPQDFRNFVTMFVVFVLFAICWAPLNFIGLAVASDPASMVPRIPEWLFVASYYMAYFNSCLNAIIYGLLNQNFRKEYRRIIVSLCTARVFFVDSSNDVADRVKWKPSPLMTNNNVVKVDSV

What is called Ki is a measure of affinity in units of concentration, obtained from inhibition or displacement. What is called EC50 is the concentration that produces a half-maximal response. Regarding `CCC(=O)NCCc1cn(C)c2c(Br)cc(OC)cc12`, the Ki in experiment [1] is 14.1 nM; in experiment [2] it was 2.29 nM. The concentration for a half-maximal effect (EC50) in experiment [3] was 64.6 nM.
For `CCC(=O)NCCc1c[nH]c2c(C)cc(OC)cc12` the same measures were 1.78 nM, 1.1 nM and 31.6 nM.
For `CCC(=O)NCCc1c[nH]c2c(-c3ccccc3)cc(OC)cc12` the same measures were 617 nM, 617 nM and 155 nM.
For `CCC(=O)NCCc1cn(C)c2c(-c3ccccc3)cc(OC)cc12`, the Ki in experiment [1] was 5890 nM; in experiment [2], 676 nM. Also, the result in experiment [4] was inactive.
For the molecule `CCCC(=O)NCCc1cn(C)c2c(C)cc(OC)cc12`, the Ki was 19.5 nM in experiment [1] and 1.35 nM in experiment [2]. Further, in experiment [3], the EC50 is 16.6 nM.
In the case of `CCCC(=O)NCCc1c[nH]c2c(Br)cc(OC)cc12`, the Ki is 5.13 nM in experiment [1] and 0.355 nM in experiment [2]. The molecule further showed an EC50 in experiment [3] of 3.47 nM.
For `CCCC(=O)NCCc1cn(C)c2c(Br)cc(OC)cc12` the same measures were 33.1 nM, 2.14 nM and 52.5 nM.
For `CCCC(=O)NCCc1c[nH]c2c(-c3ccccc3)cc(OC)cc12` the same measures were 955 nM, 871 nM and 45.7 nM.
The like results for `CCCC(=O)NCCc1c[nH]c2c(C)cc(OC)cc12` were, in that order, 2.88 nM, 0.676 nM and 12.6 nM.
Consider `CCC(=O)NCCc1cn(C)c2c(C)cc(OC)cc12`, for which the results for the Ki in experiment [1] and in experiment [2] were 15.8 nM and 2.63 nM, respectively. In experiment [3], this molecule gave a half-maximal effective concentration (EC50) of 15.8 nM.
Regarding `COc1cc(C)c2c(c1)c(CCNC(C)=O)cn2C`, the Ki is 8.71 nM in experiment [1] and 1.55 nM in experiment [2]. Also, in experiment [3], the 50% effective concentration (EC50) is 9.77 nM.
The like results for `COc1cc(Br)c2[nH]cc(CCNC(C)=O)c2c1` were, in that order, 3.55 nM, 0.676 nM and 3.31 nM.
Consider `CCCC(=O)NCCc1cn(C)c2c(-c3ccccc3)cc(OC)cc12`, for which the inhibition constant (Ki) is 5370 nM in experiment [1] and 851 nM in experiment [2]. Besides, the outcome in experiment [4] was inactive.
On to `COc1cc(-c2ccccc2)c2c(c1)c(CCNC(C)=O)cn2C`, for which the Ki in experiment [1] is 1260 nM; in experiment [2], 457 nM. In experiment [3], the concentration giving a half-maximal response (EC50) is 339 nM.
For `COc1cc(Br)c2c(c1)c(CCNC(C)=O)cn2C` the same measures were 10.5 nM, 1.32 nM and 24.5 nM.
On to `COc1ccc2[nH]cc(CCNC(C)=O)c2c1` [MELATONIN], for which the midpoint of the response in experiment [3], the EC50, lay at 0.0794 nM.
As for `COc1cc(-c2ccccc2)c2[nH]cc(CCNC(C)=O)c2c1`, the values for the Ki in experiment [1] and in experiment [2] were 12900 nM and 3020 nM, respectively. It took 120 nM to reach a half-maximal effect in experiment [3] (EC50).
Consider `CCC(=O)NCCc1c[nH]c2c(Br)cc(OC)cc12`, for which the Ki in experiment [1] is 4.17 nM; in experiment [2], 0.537 nM. This molecule also showed an EC50 in experiment [3] of 11.5 nM.
For `COc1cc(C)c2[nH]cc(CCNC(C)=O)c2c1` the same measures were 2.69 nM, 1.74 nM and 45.7 nM.
